Measurements as given in ChEMBL document CHEMBL1122402, “Antidiabetic activity of some 1-substituted 3,5-dimethylpyrazoles” (1983).

Organism: Mus musculus
Assay: Hypoglycemic activity in alloxan-diabetic female albino mice expressed as percentage reduction of plasma glucose levels
Type: functional
Set-up: concentration or dose not given beside the values

Structure (SMILES)	Reduction
CCCNC(=O)NS(=O)(=O)c1ccc(NC(=O)n2nc(C)c(Br)c2C)cc1	1%
Cc1nn(C(=O)c2ccc(NC(=O)Nc3ccccc3)cc2)c(C)c1Br	<1%
Cc1cc(C)n(CC(=O)NNC(=O)NCc2ccccc2)n1	<1%
Cc1cc(C)n(C(=O)c2cccnc2)n1	<1%
CCCCNC(=O)NS(=O)(=O)c1ccc(C(=O)n2nc(C)cc2C)cc1	2%
Cc1nn(-c2ccc(S(=O)(=O)NC(=O)NC3CCCCC3)cc2)c(C)c1Br	2.5%
CCNC(=O)NS(=O)(=O)c1ccc(-n2nc(C)c(Br)c2C)cc1	<1%
CCNC(=O)NNC(=O)Cn1nc(C)cc1C	1%
Cc1nn(C(=O)c2ccc(S(=O)(=O)NC(=O)Nc3ccccc3)cc2)c(C)c1Br	3%
CCCNC(=O)NNC(=O)Cn1nc(C)cc1C	1%
Cc1cc(C)n(C(=O)Nc2ccc(S(=O)(=O)NC(=O)NCc3ccccc3)cc2)n1	1%
CCNC(=O)NS(=O)(=O)c1ccc(C(=O)n2nc(C)cc2C)cc1	<1%
CCCNC(=O)Nc1ccc(C(=O)n2nc(C)c(Br)c2C)cc1	5%
Cc1cc(C)n(C(=O)c2ccc(NC(=O)NC3CCCCC3)cc2)n1	20%
Cc1nn(-c2ccc(S(=O)(=O)NC(=O)Nc3ccccc3)cc2)c(C)c1Br	<1%
CCCCNC(=O)NS(=O)(=O)c1ccc(NC(=O)n2nc(C)cc2C)cc1	7.5%
CCCCNC(=O)Nc1ccc(C(=O)n2nc(C)cc2C)cc1	15%
CCNC(=O)NS(=O)(=O)c1ccc(C(=O)n2nc(C)c(Br)c2C)cc1	1%
CCCNC(=O)Nc1ccc(C(=O)n2nc(C)cc2C)cc1	8%
Cc1nn(C(=O)Nc2ccc(S(=O)(=O)NC(=O)NC3CCCCC3)cc2)c(C)c1Br	4%
Cc1cc(C)n(C(=O)c2ccc(S(=O)(=O)NC(=O)NCc3ccccc3)cc2)n1	<1%
CCNC(=O)NS(=O)(=O)c1ccc(NC(=O)n2nc(C)cc2C)cc1	4%

Structure (SMILES)	Reduction
Cc1cc(C)n(C(=O)c2ccc(S(=O)(=O)NC(=O)Nc3ccccc3)cc2)n1	2%
CCCNC(=O)NS(=O)(=O)c1ccc(C(=O)n2nc(C)cc2C)cc1	<1%
CCCNC(=O)NS(=O)(=O)c1ccc(-n2nc(C)c(Br)c2C)cc1	2%
Cc1cc(C)n(CC(=O)n2nc(C)cc2C)n1	2.5%
Cc1nn(C(=O)c2ccc(S(=O)(=O)NC(=O)NCc3ccccc3)cc2)c(C)c1Br	2%
Cc1cc(C)n(C(=O)n2nc(C)cc2C)n1	2.5%
CCCNC(=O)NS(=O)(=O)c1ccc(NC(=O)n2nc(C)cc2C)cc1	6%
Cc1nn(C(=O)c2ccc(S(=O)(=O)NC(=O)NC3CCCCC3)cc2)c(C)c1Br	1%
CCNC(=O)NS(=O)(=O)c1ccc(NC(=O)n2nc(C)c(Br)c2C)cc1	<1%
CCCCNC(=O)NS(=O)(=O)c1ccc(NC(=O)n2nc(C)c(Br)c2C)cc1	2%
Cc1cc(C)n(C(=O)c2ccccc2O)n1	<1%
Cc1cc(C)n(C(=O)Nc2ccc(S(=O)(=O)NC(=O)Nc3ccccc3)cc2)n1	2%
CCCCNC(=O)Nc1ccc(C(=O)n2nc(C)c(Br)c2C)cc1	6%
Cc1cc(C)n(C(=O)Nc2ccc(S(=O)(=O)NC(=O)NC3CCCCC3)cc2)n1	9%
Cc1cc(C)n(C(=O)c2ccncc2)n1	<1%
Cc1cc(C)n(CC(=O)NNC(=O)NC2CCCCC2)n1	2.5%
Cc1cc(C)n(C(=O)c2ccc(NC(=O)Nc3ccccc3)cc2)n1	6%
Cc1cc(C)n(C(=O)c2ccc(S(=O)(=O)NC(=O)NC3CCCCC3)cc2)n1	<1%
CCCCNC(=O)NS(=O)(=O)c1ccc(-n2nc(C)c(Br)c2C)cc1	3%
Cc1nn(C(=O)c2ccc(NC(=O)NC3CCCCC3)cc2)c(C)c1Br	2.5%
CCCCNC(=O)NNC(=O)Cn1nc(C)cc1C	2%
